{"source": "patent US10363282B2", "about": "“Analogs of C5a and methods of using same” (priority 2010, dated 2019)", "key": {"neutrophils": {"test_system": "neutrophils", "assay": "In vivo neutrophil chemotaxis: histopathology and myeloperoxidase assay", "design": "species or system CD1 mice", "details": "for histopathologic analysis of skin tissue: 250 μg s.c., no bacteria", "procedure": "Neutrophil chemotaxis and myeloperoxidase assay. Neutrophil recruitment at the site of injection by EP67 or sEP67 was examined using an in vivo chemotaxis assay as described previously (van Sorge N M, et al., PloS One 2008; 3:e2964). Briefly, 250 μg EP67 or sEP67 were injected subcutaneously into the right flank of CD1 mice. The injection was repeated after 24 h. Mice were euthanized 4 h after the second injection and the site of injection excised for histopathoglogic analysis or determination of myeloperoxidase (MPO) activity as described previously (van Sorge N M, et al., supra). The assay was carried out two times and the samples analyzed in duplicate.\nNeutrophil influx is essential for the protective action of EP67. […] Neutrophil recruitment to the site of EP67 injection was further analyzed using an in vivo neutrophil recruitment assay as described previously (van Sorge N M, et al., supra; and Banerjee A, et al., Cell Microbiol; 12:1576-1588). Neutrophil migration was assessed in skin homogenates following injection of EP67 or sEP67 by determining the level of neutrophil enzyme myeloperoxidase (MPO), which serves as an effective indication of neutrophil infiltration (Banerjee A, et al., supra; and Bradley P P, et al., J Invest Dermatol 1982; 78:206-209). This method compares well with other in vivo assays of neutrophil chemotaxis (van Sorge N M, et al., supra)."}, "influenza": {"test_system": "influenza", "assay": "ELISA for anti-influenza antibodies in serum", "type": "in vivo, mice", "details": "each EP67 treatment group"}, "MRSA": {"test_system": "MRSA", "type": "in vivo, C57B1/6 mice", "details": "for lesion size in CD88 −/− background vs EP67-treated CD88 +/+ background: mouse, in vivo"}, "GBS": {"test_system": "GBS", "assay": "Group B Streptococcus (GBS) meningitis model", "type": "in vivo, CD1 mice", "details": "250 ug i.p. at day −1, 0, 1 and 2; brain and blood cfu 96 hours post-injection", "procedure": "8-week old female CD1 mice were treated with 250 ug of EP67 or s-EP67 at day −1, 0, 1 and 2 via i.p. injection. GBS was injected via i.p. at 1×10^9 cfu/mouse. Brains and blood were harvested from each mouse 96 hours post-injection. The tissue was homogenized, diluted and plated to determine the cfu/g bacteria."}, "influenza A/PR/8": {"test_system": "influenza A/PR/8", "type": "in vivo, mice", "details": "uninfected animals treated with EP67, one day later"}, "influenza A/A/PR/8": {"test_system": "influenza A/A/PR/8", "assay": "Influenza-induced weight loss after one EP67 treatment", "type": "in vivo, mice"}, "[1]": {"test_system": "bronchoalveolar lavage (BAL) cells", "assay": "BAL cell response of aged mice to EP67 insufflation", "type": "in vivo"}, "E. coli strain DH5α": {"test_system": "E. coli strain DH5α", "assay": "E. coli growth (OD600) with peptide", "type": "cell-based", "details": "for effect on log phase growth (OD600): added at OD600 0.2, 500 μg/m, LB or TSB", "procedure": "E. coli strain DH5α was grown overnight in mls of Lennox Broth (LB). This culture was diluted to an optical density at […] (OD600) of 0.06. The diluted E.coli was dispensed in 1.5 ml aliquots into separate tubes and 1.5 ml of EP67 (YSFKDMP(MeL)aR (SEQ ID NO: 4)), EP54 (YSFKPMPLaR (SEQ ID NO: 3)), scrambled-EP67 (s-EP67) or scrambled-EP54 in LB was added to obtain a final concentration of 500 μg/ml with the E. coli at an OD600 of 0.03. A culture in LB was also prepared. The cultures were incubated at 37° C. with shaking and the OD600 readings recorded hourly. In order to determine whether the growth media altered the effectiveness of EP67, LB was replaced with an alternative growth media, Tryptic Soy Broth (TSB).\nTo test the efficacy of EP67 on bacteria growing in log phase, overnight cultures of DH5α were grown in either LB or TSB. The cultures were diluted to an OD600 of 0.03 and incubated at 37° C. with shaking until they reached an OD600 of 0.2 at which time either EP67 or s-EP67, in the appropriate media, were added to a final concentration of 500 μg/m. DH5α control cultures (absence of additives) were also prepared. The tubes were further shaken at 37° C. and OD600 readings were taken hourly."}, "[2]": {"test_system": "bronchoalveolar lavage (BAL) cells", "assay": "BAL cell FACS analysis after EP67 insufflation", "type": "in vivo, mice", "procedure": "In short, EP67 (3 mg/kg) was delivered directly to the lungs of mice through insufflation (IN). […] Lungs were lavaged with PBS to isolate the bronchoalveolar lavage (BAL) cells for staining and FACS analysis."}, "[3]": {"test_system": "S. aureus (Newman strain)", "assay": "S. aureus in vitro EP67 killing curves", "type": "cell-based", "details": "dilution series, LB; higher concentrations", "procedure": "150 μl of LB growth medium plus 50 μl of EP67 or s-EP67 were added to individual culture wells resulting in a dilution series of 6 wells per EP67 or s-EP67. A “no EP67” well (control) was included at the end of each series. S. aureus (Newman strain) was allowed to grow to an OD600 of 0.4 and each well of the dilution series was inoculated with 5μl of the culture. Two wells with no bacterial inoculums were included to serve as controls. Plates were incubated at 37° C. with agitation and the OD600 of each well was measured hourly using a plate reader."}, "[4]": {"test_system": "S. aureus (USA300 LAC strain) biofilm", "assay": "S. aureus catheter biofilm model", "details": "Day 3, relative to sEP67 and PBS vehicle", "experimental": "A S. aureus (USA300 LAC strain) biofilm was established on a hollow catheter (1 cm in length) inserted subcutaneously into C57BL/6 mice by introducing 1000 CFUs of S. aureus into the catheter lumen. At the time of infection, one dose of EP67 (200 μg/ml dissolved in PBS) was introduced. At both 24 and 48 h following infection, a series of four injections of EP67 were made; two into each open end of the catheter (20 μl each) and two along the top and bottom at points perpendicular to the middle of the catheter (50 μl each). Samples of the biofilm and surrounding tissue were obtained at Day 3 and assessed for the presence of viable bacteria by standard culture methods."}, "[5]": {"details": "EP67 3 mg/kg insufflation, one day later"}}, "note": "Like-named read-outs stand apart in the source and are kept apart here. Where no end group is shown, it is not given here. [ ]: non-standard residue; d: D form. NMeL = CN[C@@H](CC(C)C)C(=O)O", "data": [{"substance": "YSFKDMP(MeL)aR (YSFKDMP[NMeL][dA]R; listed as Homo sapiens) [EP67]", "values": [{"measurement": "myeloperoxidase (MPO) levels in skin homogenates (accumulating neutrophils)", "setting": "neutrophils; 250 μg s.c. twice, 4 h after second injection, compared to sEP67", "result": "significantly higher"}, {"measurement": "histopathologic analysis of skin tissue", "setting": "neutrophils", "result": "massive influx of inflammatory cells, including neutrophils"}, {"measurement": "anti-influenza Abs in serum", "setting": "influenza", "result": "high concentration of anti-influenza Abs"}, {"measurement": "lesion size", "setting": "MRSA; CD88 −/− animals, EP67 vs sEP67", "result": "no difference in lesion size"}, {"measurement": "lesion size in CD88 −/− background vs EP67-treated CD88 +/+ background", "setting": "MRSA", "result": "significantly larger"}, {"measurement": "lesion size", "setting": "MRSA; wild-type CD88 +/+ animals, EP67 compared to sEP67", "result": "significantly smaller lesions"}, {"measurement": "protection against GBS infection in the central nervous system", "setting": "GBS", "result": "protects against GBS infections in the central nervous system"}, {"measurement": "influx of innate effectors (exMacs, neutrophils) in BAL", "setting": "influenza A/PR/8", "result": "displayed this influx of innate effectors"}, {"measurement": "protection from influenza-induced morbidity", "setting": "influenza A/A/PR/8; treated on day 2 after infection", "result": "not associated with any protection"}, {"measurement": "protection from influenza-induced morbidity", "setting": "influenza A/A/PR/8; treated on day 3 after infection", "result": "not associated with any protection"}, {"measurement": "influenza-induced weight loss", "setting": "influenza A/A/PR/8; treated one day after infection", "result": "significant protection from influenza-induced weight loss"}, {"measurement": "influenza-induced weight loss", "setting": "influenza A/A/PR/8; treated the day before infection, vs non-treated animals", "result": "lost significantly less weight"}, {"measurement": "influenza-induced weight loss", "setting": "influenza A/A/PR/8; treated the day of infection, vs non-treated animals", "result": "lost significantly less weight"}, {"measurement": "exMacs and neutrophils in alveolar space", "setting": "[1]", "result": "a large population of exMAcs and neutrophils into the alveolar space"}, {"measurement": "effect on bacterial growth (OD600)", "setting": "E. coli strain DH5α; 500 μg/ml, start OD600 0.03, LB or TSB", "result": "direct bacteriostatic/bacteriocidal effects"}, {"measurement": "effect on log phase growth (OD600)", "setting": "E. coli strain DH5α", "result": "significantly reduce and/or stop log phase growth"}, {"measurement": "CD11b+CD11c− cells (GR-1+ neutrophils) in alveolar space", "setting": "[2]; [5]", "result": "a large population of CD11b^+CD11c^− cells appeared in the alveolar space"}, {"measurement": "exudate macrophages (exMac) in BAL cells", "setting": "[2]; [5]", "result": "appearance of cells bearing the CD11b^+CD11c^+ phenotype of exudate macrophages (exMac)"}, {"measurement": "dose dependence of EP67-induced changes in BAL populations", "setting": "[2]; mouse, in vivo", "result": "strict dose-response"}, {"measurement": "time course of the EP67 response in BAL cells: neutrophils", "setting": "[2]; seven days post EP67 administration", "result": "the neutrophils were largely lost"}, {"measurement": "effect on bacterial growth (OD600)", "setting": "[3]", "result": "dose dependent inhibitory effect"}, {"measurement": "bacterial burdens in surrounding tissue", "setting": "[4]", "result": "significant decrease in bacterial burdens"}, {"measurement": "bacterial burdens within the biofilm", "setting": "[4]", "result": "significant decrease in bacterial burdens"}]}, {"substance": "(MeL)RMYKPaFDS ([NMeL]RMYKP[dA]FDS) [sEP67, reference compound]", "values": [{"measurement": "histopathologic analysis of skin tissue", "setting": "neutrophils", "result": "normal pathology"}, {"measurement": "lesion size in CD88 −/− background vs EP67-treated CD88 +/+ background", "setting": "MRSA", "result": "significantly larger"}, {"measurement": "effect on log phase growth (OD600)", "setting": "E. coli strain DH5α", "result": "little or no effect on growth"}]}]}
